This is an account of results in ChEMBL document CHEMBL3039007, “Structure-based identification of OATP1B1/3 inhibitors” (Mol Pharmacol, 2013).

Data set [1] addresses T1, Solute carrier organic anion transporter family member 1B1 (Homo sapiens, UniProt Q9Y6L6).
T1 sequence (Q9Y6L6 whole entry): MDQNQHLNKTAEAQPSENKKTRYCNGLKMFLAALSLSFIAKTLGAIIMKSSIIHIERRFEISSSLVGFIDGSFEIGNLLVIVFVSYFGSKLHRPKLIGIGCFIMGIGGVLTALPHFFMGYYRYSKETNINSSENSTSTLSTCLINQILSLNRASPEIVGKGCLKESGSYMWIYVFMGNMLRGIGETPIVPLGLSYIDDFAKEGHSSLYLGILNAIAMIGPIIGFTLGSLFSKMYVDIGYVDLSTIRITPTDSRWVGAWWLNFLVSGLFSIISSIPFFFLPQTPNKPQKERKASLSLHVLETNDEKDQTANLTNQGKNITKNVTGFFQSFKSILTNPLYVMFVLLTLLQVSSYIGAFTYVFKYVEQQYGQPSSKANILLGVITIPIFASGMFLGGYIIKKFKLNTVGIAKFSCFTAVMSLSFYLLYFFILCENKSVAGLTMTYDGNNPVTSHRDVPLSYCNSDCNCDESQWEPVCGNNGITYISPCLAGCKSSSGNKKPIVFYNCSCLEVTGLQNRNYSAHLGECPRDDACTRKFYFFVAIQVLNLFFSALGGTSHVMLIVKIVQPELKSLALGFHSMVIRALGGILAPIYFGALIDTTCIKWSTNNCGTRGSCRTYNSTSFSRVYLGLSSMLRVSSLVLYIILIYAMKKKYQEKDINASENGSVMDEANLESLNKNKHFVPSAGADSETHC
Conditions: chinese hamster, cho, 10 µM.

In data set [2] the target is T2, Solute carrier organic anion transporter family member 1B3 (Homo sapiens, UniProt Q9NPD5).
T2 sequence (Q9NPD5 whole entry): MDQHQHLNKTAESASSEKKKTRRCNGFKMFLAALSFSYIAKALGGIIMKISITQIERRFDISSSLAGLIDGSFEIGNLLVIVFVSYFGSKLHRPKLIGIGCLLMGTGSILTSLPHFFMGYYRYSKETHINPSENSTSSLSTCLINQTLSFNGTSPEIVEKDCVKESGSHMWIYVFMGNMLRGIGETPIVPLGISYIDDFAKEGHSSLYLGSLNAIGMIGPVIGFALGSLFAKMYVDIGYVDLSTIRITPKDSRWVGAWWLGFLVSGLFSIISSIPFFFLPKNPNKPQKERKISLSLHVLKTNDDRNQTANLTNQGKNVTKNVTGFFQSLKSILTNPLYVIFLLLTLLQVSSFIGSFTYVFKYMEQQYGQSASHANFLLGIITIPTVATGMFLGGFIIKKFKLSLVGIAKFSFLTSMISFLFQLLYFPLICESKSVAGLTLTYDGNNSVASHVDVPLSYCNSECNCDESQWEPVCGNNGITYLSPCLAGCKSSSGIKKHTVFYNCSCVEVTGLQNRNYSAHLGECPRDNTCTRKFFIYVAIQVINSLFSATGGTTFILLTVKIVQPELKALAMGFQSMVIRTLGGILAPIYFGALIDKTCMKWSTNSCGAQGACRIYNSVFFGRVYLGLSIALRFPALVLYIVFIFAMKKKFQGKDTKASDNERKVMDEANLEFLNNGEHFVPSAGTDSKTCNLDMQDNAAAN
Conditions: chinese hamster, cho, 10 µM.

Consider `CC[C@H]1OC(=O)[C@H](C)[C@@H](O[C@H]2C[C@@](C)(OC)[C@@H](O)[C@H](C)O2)[C@H](C)[C@@H](O[C@@H]2O[C@H](C)C[C@H](N(C)C)[C@H]2O)[C@](C)(O)C[C@@H](C)/C(=N\OCOCCOC)[C@H](C)[C@@H](O)[C@]1(C)O` [ROXITHROMYCIN], for which the residual activity (usually the signal under treatment as a percentage of the control signal) in data set [1] is on record as 91.33%; in data set [2] it was 77.16%.

Consider `CC(=O)NO` [ACETOHYDROXAMIC ACID], for which the residual activity is recorded as 91.26% in data set [1] and 100.9% in data set [2].

For the molecule `O=C(/C=C/c1ccccc1)c1ccc(O)cc1` [4'-HYDROXYCHALCONE], the residual activity in data set [1] turned out to be 132.2%; in data set [2], 130.5%.

For the molecule `Cl.N=C(N)NC(=O)c1nc(Cl)c(N)nc1N.O.O` [AMILORIDE HYDROCHLORIDE], the residual activity in data set [1] came out at 51.46%; in data set [2] it was 65.11%.

With `O=C(O)[C@@H](O)[C@H](O)[C@H](O)[C@@H](O)C(=O)O` [MUCIC ACID], the residual activity in data set [1] turned out to be 109%; in data set [2] it was 98.98%.

With `Cl.NNc1nncc2ccccc12` [HYDRALAZINE HYDROCHLORIDE], the residual activity turned out to be 87.74% in data set [1] and 115.1% in data set [2].

Regarding `Cl.Cl.Fc1ccc([C@@H]2CCNC[C@H]2COc2ccc3c(c2)OCO3)cc1.Fc1ccc([C@@H]2CCNC[C@H]2COc2ccc3c(c2)OCO3)cc1.O` [PAROXETINE HYDROCHLORIDE], the values for the residual activity in data set [1] and in data set [2] were 96.74% and 76.07%, respectively.

For the molecule `CC[C@H]1[C@@H]2C[C@H]3[C@@H]4N(C)c5ccccc5[C@]45C[C@@H]([C@@H]2[C@H]5O)N3[C@@H]1O` [AJMALINE], the residual activity in data set [1] turned out to be 34.58%; in data set [2], 91.52%.

`CN1CCOC(c2ccccc2)c2ccccc2C1` (centres undefined) [NEFOPAM]: the residual activity stood at 102.9% in data set [1] and 100.9% in data set [2].

For `Oc1cc(O)cc(/C=C/c2ccccc2)c1` [PINOSYLVIN], the residual activity in data set [1] stood at 133.5%; in data set [2] it was 114.6%.

`CC(=O)NC(Cc1ccccc1)C(=O)O` (centres undefined) [AFALANINE]: the figures for the residual activity in data set [1] and in data set [2] were 114.2% and 112.5%, respectively.

With `COc1ccc(-c2cc(=O)c3c(O)c(OC)c(OC)cc3o2)cc1O` [EUPATORIN], the results for the residual activity in data set [1] and in data set [2] were 87.53% and 72.8%, respectively.

`Cl.c1cncc([C@@H]2CCCCN2)c1` [ANABASINE HYDROCHLORIDE]: the residual activity in data set [1] stood at 83.96%; in data set [2], 91.54%.

Consider `Cc1cc(O)cc(=O)o1`, for which the residual activity in data set [1] is 87.56%; in data set [2], 97.35%.

For `C[C@@H](CO)NC(=O)[C@@H]1C=C2c3cccc4[nH]cc(c34)C[C@H]2N(C)C1.O=C(O)/C=C\C(=O)O` [ERGONOVINE MALEATE], the results for the residual activity in data set [1] and in data set [2] were 69.31% and 84.31%, respectively.

For the molecule `CNC(=O)Oc1cccc2c1OC(C)(C)C2` [CARBOFURAN], the residual activity was 100.9% in data set [1] and 111.1% in data set [2].

Consider `NCCc1ccc(O)cc1` [TYRAMINE], for which the figures for the residual activity in data set [1] and in data set [2] were 59.9% and 85.38%, respectively.

Regarding `CC(C)=CC1C(C(=O)OCc2cccc(Oc3ccccc3)c2)C1(C)C` (centres undefined) [PHENOTHRIN], the residual activity in data set [1] amounted to 157.5%; in data set [2] it was 107.3%.

In the case of `O=C1c2ccccc2C(=O)c2ccccc21` [ANTHRAQUINONE], the residual activity in data set [1] is 96.98%; in data set [2], 78.8%.

`C=N[C@@H](C(=O)N[C@@H]1C(=O)N2[C@@H]1SC(C)(C)[C@@H]2C(=O)[O-])c1ccccc1.[Na+]`: the residual activity in data set [1] was 110.5%; in data set [2] it was 54.33%.

For `COc1ccc2cc1Oc1ccc(cc1)C[C@H]1c3c(cc4c(c3Oc3cc5c(cc3OC)CCN(C)[C@@H]5C2)OCO4)CCN1C` [CEPHARANTHINE], the residual activity was determined as 91.94% in data set [1] and 125.1% in data set [2].

`COc1ccc(C(=O)c2ccccc2)c(O)c1` [OXYBENZONE]: the residual activity in data set [1] is 225.4%; in data set [2], 128.4%.

Turning to `CS(=O)(=O)OCCCCOS(C)(=O)=O` [BUSULFAN], the residual activity in data set [1] was 113.7%; in data set [2], 98.16%.

Turning to `CC(C)COCC(CN(Cc1ccccc1)c1ccccc1)N1CCCC1.Cl.O` (centres undefined) [BEPRIDIL HYDROCHLORIDE], the results for the residual activity in data set [1] and in data set [2] were 124.1% and 131.3%, respectively.

Regarding `CCCCOC(=O)c1ccccc1C(=O)OCCCC` [DIBUTYL PHTHALATE], the residual activity in data set [1] amounted to 119.5%; in data set [2], 124.6%.

`CCOC(=O)CCCCCCCCCCCCC1C=CCC1` (centres undefined) [CHAULMOOGRIC ACID, ETHYL ESTER]: the results for the residual activity in data set [1] and in data set [2] were 108.7% and 92.79%, respectively.

Consider `CC(N)CCCC(C)(C)O.Cl` (centres undefined) [HEPTAMINOL HYDROCHLORIDE], for which the residual activity was 95.56% in data set [1] and 104.5% in data set [2].

Regarding `O=C(O)c1cccnc1Nc1cccc(C(F)(F)F)c1` [NIFLUMIC ACID], the residual activity is reported as 79.63% in data set [1] and 83.73% in data set [2].

In the case of `Cc1onc(-c2ccccc2)c1C(=O)N[C@@H]1C(=O)N2[C@@H]1SC(C)(C)[C@@H]2C(=O)[O-].[Na+]`, the residual activity was 76.67% in data set [1] and 90.07% in data set [2].

In the case of `COc1cc(OC)c2c(=O)c(-c3ccc4c(c3)OCO4)coc2c1` [DERRUSTONE], the figures for the residual activity in data set [1] and in data set [2] were 132.5% and 94.69%, respectively.

On to `C[C@H](CCC(=O)O)[C@H]1CC[C@H]2[C@@H]3[C@@H](O)C[C@@H]4C[C@H](O)CC[C@]4(C)[C@H]3CC[C@]12C` [URSODIOL], for which the residual activity in data set [1] worked out at 70.93%; in data set [2], 149.7%.

In the case of `COc1c2ccoc2cc2oc(C)cc(=O)c12` [VISNAGIN], the residual activity in data set [1] is on record as 127.2%; in data set [2], 98.15%.

Turning to `CCc1nc(N)nc(N)c1-c1ccc(Cl)cc1` [PYRIMETHAMINE], the results for the residual activity in data set [1] and in data set [2] were 72.59% and 107.4%, respectively.

Turning to `COc1ccc2cc([C@H](C)CO)ccc2c1` [NAPROXOL], the residual activity in data set [1] stood at 241.9%; in data set [2] it was 102.8%.

On to `CC1(C)CC2C1CC[C@]1(CBr)CCC3C(CC(=O)O)C(=O)O[C@@]32C1` (some centres undefined) [BROMO-3-HYDROXY-4-(SUCCIN-2-YL)-CARYOLANE gamma-LACTONE], for which the values for the residual activity in data set [1] and in data set [2] were 26.83% and 50.1%, respectively.

Take `O=[N+]([O-])c1cc(O)c(O)c([N+](=O)[O-])c1` [3,5-DINITROCATECHOL (OR-486)]: the residual activity in data set [1] was determined as 38.63%; in data set [2], 75.38%.

Take `O=c1c(-c2cc(O)c(O)c(O)c2)coc2cc(O)c(O)c(O)c12` [IRIGENOL]: the values for the residual activity in data set [1] and in data set [2] were 71.59% and 92.26%, respectively.

On to `CCOP(=S)(OCC)SCn1c(=O)oc2cc(Cl)ccc21` [PHOSALONE], for which the figures for the residual activity in data set [1] and in data set [2] were 116.2% and 124%, respectively.

With `COc1cc2c(cc1OC)[C@@H]1Cc3ccc(OC)c(OC)c3CN1CC2` [TETRAHYDROPALMATINE], the residual activity is listed as 186.7% in data set [1] and 106.9% in data set [2].

Regarding `Cc1cc(-c2ccccc2)nnc1NCCN1CCOCC1.Cl`, the residual activity is on record as 73.96% in data set [1] and 96.66% in data set [2].

On to `C[C@@H]1O[C@@H](O[C@H]2C[C@@H](O)[C@]3(CO)[C@H]4[C@H](O)C[C@]5(C)[C@@H](C6=CC(=O)OC6)CC[C@]5(O)[C@@H]4CC[C@]3(O)C2)[C@H](O)[C@H](O)[C@H]1O` [OUABAIN], for which the residual activity in data set [1] was found to be 108.1%; in data set [2] it was 98.13%.

For the molecule `O=C(O)CCCCCCCC(=O)O` [AZELAIC ACID], the residual activity in data set [1] is listed as 100.4%; in data set [2], 107.2%.
